In patent publication US20100222337A1, “FUNGICIDAL COMPOSITION CONTAINING CARBOXYLIC ACID AMIDE DERIVATIVE” (Ishihara Sangyo Kaisha, Ltd., priority 2005, published 2010):

Key:
[1] = test system: Botrytis cinerea; test: Test on preventive effect against kidney bean gray mold; assay type: in vivo; details: 500 ppm, spray on kidney bean (Taisyou Kintoki), 3 to 4 days after inoculation
[2] = test system: sheath blight of rice; details: as disclosed in Patent Document 2 (JP-A-2005-179234); cited from earlier work
[3] = test system: Erysiphe graminis; details: 500 ppm, spray on wheat (Norin-61-go) at 1.5-leaf stage, preventive, 6 to 7 days after inoculation
Protocol: In each test, the controlling index was determined on the basis of the following standards:
Wheat (cultivar: Norin-61-go) was cultivated in a plastic pot having a diameter of 7.5 cm, and when it reached 1.5-leaf stage, 10 ml of a chemical solution having the carboxylic acid amide derivative of the formula (I) or a salt thereof adjusted to a prescribed concentration, was applied by a spray gun. After the chemical solution dried (the same day as the application), conidia of Erysiphe graminis were dusted and inoculated and maintained in a constant temperature chamber at 20° C. From 6 to 7 days after the inoculation, the area of sporulation was investigated, and the controlling index was determined in accordance with the above evaluation standards.

SMILES | controlling index (length of lesions) [1] | effect against sheath blight of rice [2] | controlling index (area of sporulation) [3] | melting point [°C]
CC(C)(NC(=O)c1ccncc1F)C(=O)c1ccc(-c2ccc(OC(F)(F)F)cc2)cc1 [Comparative Compound 1, 3-fluoro-N-(2-methyl-1-oxo-1-(4′-(trifluoromethoxy)biphenyl-4-yl)propan-2-yl)isonicotinamide] | 1 (Length of lesions, number of lesions or area of sporulation is at least 70% of non-treated plot) | effective | 1 (Length of lesions, number of lesions or area of sporulation is at least 70% of non-treated plot) | –
Cc1c(C(=O)C(C)(C)NC(=O)c2ncccc2C(F)(F)F)ccc2c1OC(F)(F)O2 [compound No. 2-1, N-[2-[(2,2-difluoro-4-methyl-1,3-benzodioxolan-5-yl)carbonyl]-2-propyl]-3-trifluoromethyl-2-pyridinecarboxamide] | – | – | – | 130 to 134
